# Laboratory results from PMC8249783, “A novel multikinase inhibitor SKLB‐YTH‐60 ameliorates inflammation and fibrosis in bleomycin‐induced lung fibrosis mouse models” (Cell Proliferation, 2021).
# Legend:
# [1] = system: lung MDSCs and macrophages; assay: Flow cytometry of MDSCs and macrophages in lung tissue of BLM mice; format: in vivo, C57BL/6 mice; conditions: 30 mg·kg^−1 i.p.
# Method: (§1) Male C57BL/6 mice (8‐10 weeks old) were purchased from HFK Bioscience Co. Ltd. All animal experiments were permitted by the Institutional Animal Care and Treatment Committee of Sichuan University in China (New Permit Number: 20190524003). Lung fibrosis was induced using BLM treatment (2 mg·kg^−1). All C57BL/6 mice were divided into five groups (n = 10): a BLM + Nintedanib group (Nintedanib, 30 mg·kg^−1), a BLM + YTH‐60 group (YTH‐60, 15 mg·kg^−1 and 30 mg·kg^−1), a control group (Sham), and a bleomycin group (Vehicle). At the beginning, the mice were anaesthetized using 10% chloral hydrate, dissolved BLM with saline and administered intratracheally. To evaluate the preventive effect, the next day after BLM challenge, YTH‐60 and Nintedanib were administered intraperitoneally daily for 13 days (fibroproliferation) to the mice. All mice were sacrificed 24 hours after the last drug injection, the lungs and other organs were taken for the subsequent analysis. To test the therapeutic effect, after the 7th day of BLM treatment, mice were injected intraperitoneally with YTH‐60, Nintedanib and vehicle daily for 7 consecutive days (fibroproliferation).
# We analysed the percentage of MDSCs and macrophages by Flow cytometry (FCM). ^22 Use scissors to cut approximately 30 mg of mouse lung tissues into small pieces and use 5 mL of collagenase‐IV with a concentration of 1 mg·mL^−1, digested at 37°C for at least 1 hour. Centrifuge at 400 g for 5 minutes and discard the supernatant. Then, add another 5 mL PBS to resuspend, after precipitation, taken the supernatant and mixed with the corresponding fluorochromium binding antibody, incubate for 30 minutes in the dark at 4°C (MDSCs with PE^−CD11b^−, FITC^−Gr1^− conjugated dual labelling and macrophages with PE^−F4/80^−, FITC^−CD11b^− conjugated dual labelling). The data were acquired with a FACS Canton II NovoCyte (ACEA).
# [2] = system: Human pulmonary fibroblasts (HPF); assay: Cell viability assay (CCK8); format: cell-based; conditions: 24‐72 hours
# Method: (§2) The cell viability of YTH‐60 and Nintedanib treatment was performed by MTT and CCK8 assay. Briefly, the exponentially growing cells were seeded in 96‐well (2‐5 × 10^3 cells·well^−1) and cultured for 24 hours. The cells were treated with different concentrations of YTH‐60 (0, 0.625, 1.25, 2.5, 5, 10 µmol·L^−1), after treatment for 24, 48 and 72 hours, respectively, a volume of 20 μL of 5 mg·mL^−1 MTT solution or 10 μL CCK‐8 solution was added to each well and incubation for 2‐4 hours at 37°C. Finally, the 96‐well plates were read on Multiskan FC microplate spectrophotometer at 570 or 450 nm wavelength.
# [3] = system: MRC‐5 human embryo lung fibroblast; assay: Cell viability assay (CCK8); format: cell-based; conditions: MRC‐5, 24‐72 hours
# Method: as §2
# [4] = system: NIH‐3T3 (mouse embryonic fibroblast); assay: Cell viability assay (CCK8); format: cell-based; conditions: NIH‐3T3, 24‐72 hours
# Method: as §2
# [5] = system: BLM‐induced pulmonary fibrosis; assay: BLM‐induced pulmonary fibrosis mouse model, therapeutic treatment (day 7 to 14); format: in vivo, C57BL/6 mice; conditions: mice, 30 mg·kg^−1 i.p. from day 7 to 14
# Method: as §1, with “To test the therapeutic effect, after the 7th day of BLM treatment, mice were injected intraperitoneally with YTH‐60, Nintedanib and vehicle daily for 7 consecutive days (fibroproliferation).” left out
# The left lung was detached and immediately fixed in 4% paraformaldehyde for 72 hours and then embed with paraffin wax. […] Ashcroft scoring was used to examine the severity of pulmonary fibrosis. ^20 The image analysis‐based system to quantify collagen deposition was described previously. ^21
# phosphorylation of FGFR1 = assay: Western blot of FGFR signalling in fibroblasts; format: cell-based; conditions: 10 μmol·L^−1
# Method: Samples of cells and mouse lung tissues were lysed in RIPA buffer with a protease and phosphatase inhibitors (Selleckchem). The protein concentrations in the cell lysate were measured by the Lowry method. Approximately 50 μg of total protein was separated by SDS‐PAGE and then transferred to polyvinylidene fluoride (PVDF) membranes (Amersham Bioscience). After the membranes incubation with the specific primary and secondary antibodies, the reactive bands were detected with enhanced chemiluminescent substrate to horseradish peroxidase.
# [6] = system: α‐SMA, collagen I and TGF‐β1 mRNA in NIH‐3T3 cells; assay: Real‐time qPCR of fibrosis markers in TGF‐β1‐treated fibroblasts; format: cell-based, mouse; conditions: NIH‐3T3, TGF‐β1 and 2.5 μmol·L^−1 for 24 hours
# Method: Total RNA of lung tissues or cells was extracted by using AxyPrep Multisource Total RNA Miniprep Kit (Axygen). Reverse transcription was carried out with Evo M‐MLV RT Kit with gDNA Clean (Accurate, AG11711). qRTPCR was conducted using SYBR Green Pro Taq HS (Accurate, AG11701).
# A549 cells = assay: Cell viability assay (MTT); format: cell-based, human
# Method: as §2
structure (smiles),measurement,setting,value
"COc1cc(OC)c(Cl)c(-c2ccc3c(/C=C/c4ccc(N(C)C(=O)CN5CCN(C)CC5)cc4)n[nH]c3c2)c1Cl [YTH‐60, (E)‐N‐(4‐(2‐(6‐(2,6‐dichloro‐3,5‐dimethoxyphenyl)‐1H‐indazol‐3‐yl)vinyl)phenyl)‐N‐methyl‐2‐(4‐methylpiperazin‐1‐yl)acetamide]",percentage of CD11b^+F4/80^+ cells (macrophages) in lung,"[1]; day 14, BLM group 19.9%, sham 9.9%",9.27%
same,percentage of CD11b^+Gr1^+ cells (MDSCs) in lung,"[1]; day 14, BLM group 20.5%, sham 5.14%",7.07%
same,cell proliferation / viability (in words),[2],inhibits cell proliferation in a time‐ and concentration‐dependent manner
same,cell proliferation / viability (in words),[3],inhibits cell proliferation in a time‐ and concentration‐dependent manner
same,cell proliferation / viability (in words),[4],inhibits cell proliferation in a time‐ and concentration‐dependent manner
same,therapeutic effect on BLM‐induced lung fibrosis (in words),[5],good therapeutic effect
same,phosphorylation of FGFR1 (in words),phosphorylation of FGFR1,inhibited the phosphorylation of FGFR1
same,"mRNA levels of α‐SMA, collagen I and TGF‐β1 (in words)",[6],reduced this effect
same,viability of A549 cells (in words),A549 cells,suppressed the viability of A549 cells
